The results in this text go back to PMC9352670 (2022).

Test [1] concerns Dm-HS-1 (DNA, aptamer, HFNAP, side-chains on nucleobases: fluorophenyl at 19; allylamine at 22, 25, 37; alcohol at 28, 34, 49; phenol at 31, 46; cyclopentyl at 40; cyclopropyl at 43, 58; imidazole at 52, 55, 61) GAAAGCAGGACTGGAGATCGATTCTGGTGCTGTTGATCTCCGCCATTGTGCTCCTACCCTTCACAGACCGAACTAGAGCTT
In words: gel filtration, radiolabelled ligand. As to conditions: 140 mM NaCl, 5 mM KCl, 1 mM MgCl2, 1 mM CaCl2; 20 mM Tris-HCl pH 7.4, 0.05% Tween 20, 25 °C; [3H]-daunomycin mixed with unlabelled; control sequence subtracted. (In general: Size exclusion chromatography separates by hydrodynamic size, large species first.)

Test [2] deals with Dm-HS-1 TAC ∆ s.c. (DNA, aptamer, no side-chain at 55 (codon 13 TAC); others as HFNAP: fluorophenyl at 19; allylamine at 22, 25, 37; alcohol at 28, 34, 49; phenol at 31, 46; cyclopentyl at 40; cyclopropyl at 43, 58; imidazole at 52, 61) GAAAGCAGGACTGGAGATCGATTCTGGTGCTGTTGATCTCCGCCATTGTGCTCCTACCCTTCACAGACCGAACTAGAGCTT
In words: microscale thermophoresis. Conditions: 5 mM KCl, 1 mM MgCl2, 1 mM CaCl2 added to HBS-P+; HBS-P+ buffer, 25 °C. (In general: Microscale thermophoresis detects binding through changes in fluorescence in a small temperature gradient.)

Test [3] deals with Dm-HS-9 ∆ s.c. (DNA, aptamer, none (no side-chains)) GAAAGCAGGACTGGAGATCGATTATTGTGATTTTGATCTCCCCCATATCCCCTTCCCTACTCGCAGACCGAACTAGAGCTT
In words: microscale thermophoresis. Conditions: 5 mM KCl, 1 mM MgCl2, 1 mM CaCl2 added; HBS-P+ buffer, 25 °C.

In test [4] the test system is Dm-HS-8 (DNA, aptamer, HFNAP: side-chain on 5' nucleobase of each coding trinucleotide, positions 19,22,25,...,61 (codon key Figure 1B)) GAAAGCAGGACTGGAGATCGATTGCAGTTACGTCTCCCCTGCCCACCTTATTGCCATTCATAACAGACCGAACTAGAGCTT
In words: microscale thermophoresis. As to conditions: 5 mM KCl, 1 mM MgCl2, 1 mM CaCl2 added; HBS-P+ buffer, 25 °C.

For test [5], the system named is Dm-reference-based-random-after-selection-3 (DNA, other, HFNAP: side-chain on 5' nucleobase of each coding trinucleotide, positions 19,22,25,...,61 (codon key Figure 1B)) GAAAGCAGGACTGGAGATTGCTCTTGCCCGCCCTGTTGCTATCATCCCCCACCTTAGTACCCCCAGACCGAACTAGAGCTT
In words: microscale thermophoresis. Conditions: 5 mM KCl, 1 mM MgCl2, 1 mM CaCl2 added; HBS-P+ buffer, 25 °C.

Test [6] has as its system Dm-reference-based-random-after-selection-2 (DNA, other, HFNAP: side-chain on 5' nucleobase of each coding trinucleotide, positions 19,22,25,...,61 (codon key Figure 1B)) GAAAGCAGGACTGGAGATTTGTGCCCCTGATGCCCATGGTCCCTCCGCTGCTAACGTTTGCCTCAGACCGAACTAGAGCTT
In words: microscale thermophoresis. As to conditions: 5 mM KCl, 1 mM MgCl2, 1 mM CaCl2 added; HBS-P+ buffer, 25 °C.

Structures are written as SMILES.

A word on the Kd: it is the constant that tells how readily two partners part at equilibrium. In the case of `COc1cccc2c1C(=O)c1c(O)c3c(c(O)c1C2=O)C[C@@](O)(C(C)=O)C[C@@H]3O[C@H]1C[C@H](N)[C@H](O)[C@H](C)O1`, the Kd in test [1] is 12.6 ± 3.5 nM; in test [2], 21.7 ± 2.1 nM; in test [4] it was 32.26 ± 8.9 nM; in test [5], 176500 ± 8000 nM; in test [6], 114400 ± 7400 nM. Moreover, the “Kd ∆ side-chains” value in test [3] amounted to 5000 ± 140 nM.
